Test results published in PubChem BioAssay (NCI).
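All cell lines were grown in 96-well plates and treated with compound for 48 hours. TGI: concentration producing complete growth inhibition.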

Assays:
Test in all cases: NCI tumour cell line growth inhibition, 48 h
P388/ADR leukemia = test system: P388/ADR leukemia
XF 498 CNS = test system: XF 498 CNS
KM20L2 colon = test system: KM20L2 colon
DLD-1 colon = test system: DLD-1 colon
DMS 114 small cell lung = test system: DMS 114 small cell lung
HOP-18 NSCLC = test system: HOP-18 NSCLC
DMS 273 small cell lung = test system: DMS 273 small cell lung
P388 leukemia = test system: P388 leukemia
SN12K1 renal = test system: SN12K1 renal
LXFL 529 NSCLC = test system: LXFL 529 NSCLC
RXF-631 renal = test system: RXF-631 renal

Cn1c(-c2ccccc2)cc(-c2cccs2)c1-c1cccs1 gave a TGI (P388/ADR leukemia) greater than 100 µM, a TGI (XF 498 CNS) greater than 100 µM and a TGI (KM20L2 colon) greater than 100 µM. The TGI (DLD-1 colon) was greater than 100 µM, the TGI (DMS 114 small cell lung) was greater than 100 µM and the TGI (HOP-18 NSCLC) was greater than 100 µM. For the same molecule, the TGI (DMS 273 small cell lung) was greater than 100 µM, the TGI (P388 leukemia) was greater than 100 µM and the TGI (SN12K1 renal) was greater than 41.9 µM.

In the case of CC12C=CC(=O)C=C1CCC1C3CCC(O)(C(=O)CO)C3(C)CC(O)C12F (stereo unspecified), the TGI (XF 498 CNS) is reported as greater than 100 µM, the TGI (KM20L2 colon) is reported as greater than 100 µM and the TGI (DLD-1 colon) is reported as greater than 100 µM. The TGI (DMS 114 small cell lung) was greater than 100 µM, the TGI (DMS 273 small cell lung) was greater than 100 µM and the TGI (LXFL 529 NSCLC) was greater than 100 µM.

For CN1C(c2ccccc2)CC(=O)C(N)C1c1ccccc1 (stereo unspecified), the TGI (XF 498 CNS) was 28.1 µM, the TGI (KM20L2 colon) was greater than 90.6 µM and the TGI (DLD-1 colon) was greater than 100 µM. For the same molecule, the TGI (HOP-18 NSCLC) was greater than 100 µM, the TGI (DMS 273 small cell lung) was greater than 61.7 µM and the TGI (LXFL 529 NSCLC) was 37.5 µM.

For COc1cc(C(C)O)c[n+](Cc2ccccc2)c1 (stereo unspecified), the TGI (XF 498 CNS) was greater than 31.6 µM, the TGI (KM20L2 colon) was greater than 100 µM and the TGI (RXF-631 renal) was greater than 100 µM. It also gave a TGI (DLD-1 colon) greater than 100 µM, a TGI (DMS 114 small cell lung) greater than 100 µM and a TGI (HOP-18 NSCLC) greater than 100 µM. It also gave a TGI (DMS 273 small cell lung) greater than 100 µM and a TGI (LXFL 529 NSCLC) greater than 100 µM.

For Nc1[nH]c(=O)nc2c1cnn2C1CCCCO1 (stereo unspecified), the TGI (XF 498 CNS) was greater than 100 µM, the TGI (KM20L2 colon) was greater than 100 µM and the TGI (RXF-631 renal) was greater than 100 µM. The TGI (DLD-1 colon) was greater than 100 µM, the TGI (HOP-18 NSCLC) was greater than 100 µM and the TGI (DMS 273 small cell lung) was greater than 100 µM. It also gave a TGI (LXFL 529 NSCLC) greater than 100 µM.
